Read-outs that look alike come from different tables or passages of the source.
What was measured:
[1] = test system: C2C12 myotubes; conditions: Conc 20 μM; for Viability (composite Z-score): normalized score vs mock-treated (DMSO) wells
[2] = test system: reactive oxygen species; format: cell-based, mouse; conditions: Conc 20 μM; for ROS (composite Z-score): normalized score vs mock-treated (DMSO) wells
[3] = test system: mtOXPHOS transcripts; format: cell-based, mouse; conditions: Conc 20 μM; for mitoOX (composite Z-score): normalized score vs mock-treated (DMSO) wells
[4] = test system: OXPHOS gene expression; format: cell-based, mouse; conditions: Conc 20 μM; for GE-HTS (composite Z-score): normalized score vs mock-treated (DMSO) wells
[5] = test system: cellular dehydrogenase activity; conditions: Conc 20 μM; for MTT (composite Z-score): normalized score vs mock-treated (DMSO) wells
[6] = test system: nuOXPHOS transcripts; format: cell-based, mouse; conditions: Conc 20 μM; for nucOX (composite Z-score): normalized score vs mock-treated (DMSO) wells
[7] = test system: mitochondrial membrane potential; format: cell-based, mouse; conditions: Conc 20 μM; for ΔΨm (composite Z-score): normalized score vs mock-treated (DMSO) wells
[8] = test system: cytochrome c; format: cell-based, mouse; conditions: Conc 20 μM; for cyt c (composite Z-score): normalized score vs mock-treated (DMSO) wells
[9] = composite Z-score vs mock-treated (DMSO) wells
[10] = normalized composite Z-score vs mock-treated (DMSO) wells
[11] = composite Z-score vs DMSO wells

For CCC(=O)OC1[C@@H]2CC3=C4CC(=O)O[C@@H](c5ccoc5)[C@]4(C)CCC3[C@@](C)(C2=O)[C@@H](CC(=O)OC)C1(C)C (stereo partly drawn) [khayasin C], which Viability [1, 9] is on record?
The Viability was −1.021.

And the ROS [2, 9]?
Its ROS is −0.078.

And the mitoOX [3, 9]?
Its mitoOX is 1.232.

What about the GE-HTS [4, 9] of the same molecule?
The GE-HTS was 0.442.

What about the MTT [5, 9] of the same molecule?
The MTT was −1.678.

What about the nucOX [6, 9] of the same molecule?
Its nucOX is 0.033.

What about the ΔΨm [7, 9] of the same molecule?
Its ΔΨm is −0.095.

And the cyt c [8, 9]?
Its cyt c is −0.654.

What does the source list for CCC(C)C(=O)OC1[C@@H]2CC3=C4CC(=O)O[C@@H](c5ccoc5)[C@]4(C)CCC3[C@@](C)(C2=O)[C@@H](CC(=O)OC)C1(C)C (stereo partly drawn) [khayasin]?
Viability [1, 9]: −0.077; ROS [2, 9]: 0.528; mitoOX [3, 9]: 0.326; GE-HTS [4, 9]: 0.671; MTT [5, 9]: −0.812; nucOX [6, 9]: 0.798; ΔΨm [7, 9]: 0.007; cyt c [8, 9]: −0.281

What does the source list for CC(=O)O[C@H]1C[C@@H](OC(C)=O)C(C)(C)[C@@H]2C[C@@H](OC(C)=O)[C@]3(C)[C@H](CC[C@@]4(C)[C@H](c5ccoc5)OC(=O)[C@H]5O[C@@]534)[C@@]12C [khivorin]?
Viability [1, 9]: 0.807; ROS [2, 9]: 0.187; mitoOX [3, 9]: −0.423; GE-HTS [4, 9]: −0.144; MTT [5, 9]: −1.421; nucOX [6, 9]: −0.022; ΔΨm [7, 9]: −0.145; cyt c [8, 9]: 0.229

What does the source list for OC[C@H]1O[C@@H](n2cnc3c(NCc4ccco4)ncnc32)[C@H](O)[C@@H]1O [kinetin riboside]?
Viability ([1]; composite Z-score vs DMSO): −1.883; ROS ([2]; composite Z-score vs DMSO): −2.722; mitoOX ([3]; composite Z-score vs DMSO): 0.750; GE-HTS ([4]; composite Z-score vs DMSO): 0.882; MTT ([5]; composite Z-score vs DMSO): −4.309; nucOX ([6]; composite Z-score vs DMSO): 0.853; ΔΨm ([7]; composite Z-score vs DMSO): −1.350; cyt c ([8]; composite Z-score vs DMSO): −2.612

How did the Viability ([1]; composite Z-score vs DMSO) turn out when COc1ccc(-c2coc3cc(O)ccc3c2=O)c(OC)c1O [koparin 2′-methyl ether] was run?
Its Viability is 0.024.

What about the ROS ([2]; composite Z-score vs DMSO) of the same molecule?
Its ROS is 0.126.

And the mitoOX ([3]; composite Z-score vs DMSO)?
The mitoOX was −0.309.

And the GE-HTS ([4]; composite Z-score vs DMSO)?
Its GE-HTS is −1.151.

What about the MTT ([5]; composite Z-score vs DMSO) of the same molecule?
The MTT was −0.532.

What about the nucOX ([6]; composite Z-score vs DMSO) of the same molecule?
Its nucOX is −1.461.

And the ΔΨm ([7]; composite Z-score vs DMSO)?
Its ΔΨm is −0.442.

And the cyt c ([8]; composite Z-score vs DMSO)?
The cyt c was 0.007.

Which results are given for COc1c(O)cc2c(-c3ccccc3)cc(=O)oc2c1OC [kuhlmannin]?
Viability (composite Z-score) [1]: 0.333; ROS (composite Z-score) [2]: 0.443; mitoOX (composite Z-score) [3]: 0.408; GE-HTS (composite Z-score) [4]: 0.624; MTT (composite Z-score) [5]: −0.487; nucOX (composite Z-score) [6]: 0.646; ΔΨm (composite Z-score) [7]: 0.133; cyt c (composite Z-score) [8]: −0.170

What does the source list for NCCC(=O)c1ccccc1N [kynuramine]?
Viability [1, 10]: 0.319; ROS [2, 10]: 1.180; mitoOX [3, 10]: 0.045; GE-HTS [4, 10]: 0.070; MTT [5, 10]: −1.264; nucOX [6, 10]: 0.093; ΔΨm [7, 10]: −0.127; cyt c [8, 10]: 1.161

For Nc1ccccc1C(=O)CC(N)C(=O)O (stereo not drawn) [kynurenine], which Viability [1, 10] is on record?
The Viability was −0.110.

What about the ROS [2, 10] of the same molecule?
The ROS was 1.941.

What about the mitoOX [3, 10] of the same molecule?
Its mitoOX is 0.069.

What about the GE-HTS [4, 10] of the same molecule?
The GE-HTS was −0.039.

And the MTT [5, 10]?
Its MTT is −0.912.

What about the nucOX [6, 10] of the same molecule?
The nucOX was −0.088.

And the ΔΨm [7, 10]?
The ΔΨm was −0.058.

What about the cyt c [8, 10] of the same molecule?
Its cyt c is 0.162.

Which results are given for C[C@@H]1CC[C@H]2[C@](C)(CO)[C@@H](O)CC[C@]2(C)[C@@]12CC[C@@](CO)(CCO)O2 [lagochilin]?
Viability (composite Z-score) [1]: 0.043; ROS (composite Z-score) [2]: 0.962; mitoOX (composite Z-score) [3]: 0.128; GE-HTS (composite Z-score) [4]: 0.002; MTT (composite Z-score) [5]: −0.238; nucOX (composite Z-score) [6]: −0.036; ΔΨm (composite Z-score) [7]: 0.277; cyt c (composite Z-score) [8]: −0.862

What does the source list for CC(=O)O[C@H]1C[C@H](O[C@H]2[C@@H](O)C[C@H](O[C@H]3[C@@H](O)C[C@H](O[C@H]4CC[C@@]5(C)[C@H](CC[C@@H]6[C@@H]5C[C@@H](O)[C@]5(C)[C@@H](C7=CC(=O)OC7)CC[C@]65O)C4)O[C@@H]3C)O[C@@H]2C)O[C@H](C)[C@H]1O[C@@H]1O[C@H](CO)[C@@H](O)[C@H](O)[C@H]1O [lanatoside C]?
Viability [1, 11]: −0.704; ROS [2, 11]: −0.033; mitoOX [3, 11]: −0.935; GE-HTS [4, 11]: −0.931; MTT [5, 11]: −0.887; nucOX [6, 11]: −0.844; ΔΨm [7, 11]: −1.105; cyt c [8, 11]: 0.664

For CC(C)=CCC1=C(O)C(=O)c2ccccc2C1=O [lapachol], which Viability [1, 11] is on record?
The Viability was −0.409.

And the ROS [2, 11]?
Its ROS is −0.544.

And the mitoOX [3, 11]?
The mitoOX was −1.077.

What about the GE-HTS [4, 11] of the same molecule?
Its GE-HTS is −1.316.

And the MTT [5, 11]?
The MTT was −1.211.

And the nucOX [6, 11]?
Its nucOX is −1.308.

What about the ΔΨm [7, 11] of the same molecule?
The ΔΨm was 0.035.

What about the cyt c [8, 11] of the same molecule?
The cyt c was 0.325.

For C=C[C@@](C)(O)CC[C@H]1C(=C)C[C@H](O)[C@H]2C(C)(C)CCC[C@]12C [larixol], which “Viability (composite Z-score)” value [1] is on record?
Its value is 0.085.

And the “ROS (composite Z-score)” value [2]?
Its value is 1.068.

What about the “mitoOX (composite Z-score)” value [3] of the same molecule?
Its value is −0.552.

And the “GE-HTS (composite Z-score)” value [4]?
The value was −0.507.

What about the “MTT (composite Z-score)” value [5] of the same molecule?
The value was −0.221.

What about the “nucOX (composite Z-score)” value [6] of the same molecule?
The value was −0.466.

What about the “ΔΨm (composite Z-score)” value [7] of the same molecule?
The value was −0.141.

What about the “cyt c (composite Z-score)” value [8] of the same molecule?
The value was 0.944.

Reference: US20090143279A1 (priority 2007, published 2009)
